Experimental findings from patent publication US20240366639A1, “HETEROCYCLIC GLP-1 AGONISTS” (GASHERBRUM BIO, INC., priority 2021, published 2024) are described below.

Read-outs that look alike come from different tables or passages of the source.

The experiment deals with T1, GLP-1 Receptor (GLP1R) (Homo sapiens, UniProt P43220).
T1 construct: host or cells: HEK293/GLP1R/CRE-LUC
The experiment can be described thus: GLP-1R agonist cAMP stimulation assay (Method 3). The format is cell-based. As to conditions: HEK293/GLP1R/CRE-LUC cells (HDB), Method 3, 30 min incubation. As to the method:
Method 3: Activation of GLP-1 receptor is known to stimulate cyclic AMP (cAMP) production in cells which indicates primary coupling to the Gαs subunit of the G protein heterotrimeric complex.
To optimize functional activity directed toward Gαs coupling, a HEK293/CRE-Luc cell line developed by HDB stably expressing the GLP-1 Receptor was used, 200× concentration of compound working solutions were prepared (Agilent Technologies Bravo) with 1/2 log serial dilution in 384-well Echo LDV plate (Labcyte, Cat #LP-0200). 50 nL/well 200× concentration of compound working solutions were moved to 384-well white low volume plate (Greiner, Cat #784075) using Labcyte ECHO550. 1×10^5 cells/mL HEK293/GLP1R/CRE-LUC(HD Biosciences) cell suspensions prepared with assay buffer [DPBS containing 0.5 mM IBMX (Sigma, Cat #15879) and 0.1% BSA (GENVIEW, Cat #FA016-100 g)], 10 μL cell suspensions were added to each well of previous generated assay plate which already contains 50 nL compound at 200× concentration using ThermoFisher Multidrop Combi (1000 cells/well). Seal the plate and incubate at 37° C. with 5% CO2 for 30 min.
After incubation the cAMP assay signal was generated using cAMP dynamic 2 Kit (Cisbio). 5 μL cAMP-d2 working solution was added to each well, followed with 5 μL Anti-cAMP antibody-cryptate working solution added to each well using ThermoFisher Multidrop Combi. Incubate at room temperature for 1 hour protected from light. Read the fluorescence at 665 nm and 615 nm with Reader PerkinElmer EnVision.

[1] abbreviates: read-out: GLP1R cAMP Stimulation DR: EC50 (nM) [Species: Human, Assay Cell Line: HDB].
Setting [2] is: read-out: GLP1R cAMP Stimulation DR: pEC50 (M) [Species: Human, Assay Cell Line: HDB] (converted).

T1 sequence (P43220 24-463): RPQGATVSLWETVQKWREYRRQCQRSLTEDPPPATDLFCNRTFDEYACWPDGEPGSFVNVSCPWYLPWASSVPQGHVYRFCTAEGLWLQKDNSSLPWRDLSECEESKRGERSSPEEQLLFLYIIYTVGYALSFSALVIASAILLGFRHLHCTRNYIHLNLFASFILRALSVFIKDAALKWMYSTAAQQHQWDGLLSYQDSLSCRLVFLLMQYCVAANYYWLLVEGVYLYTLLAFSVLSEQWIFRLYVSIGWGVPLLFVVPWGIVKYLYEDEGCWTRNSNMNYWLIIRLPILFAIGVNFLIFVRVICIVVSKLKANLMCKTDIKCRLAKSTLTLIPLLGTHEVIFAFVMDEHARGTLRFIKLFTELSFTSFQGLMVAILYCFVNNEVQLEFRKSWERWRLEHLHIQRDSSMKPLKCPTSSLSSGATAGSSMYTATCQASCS

Consider `CCP(=O)(CC)c1cc(F)c(-n2ccn(-c3c4c(nn3-c3cc(C)c(F)c(C)c3)CCN(C(=O)c3cc5cc(C6CCOCC6)ccc5n3[C@@]3(c5noc(=O)[nH]5)C[C@@H]3C)[C@H]4C)c2=O)cc1NC` [Compound 144a, 3-((1S,2S)-1-(2-((S)-3-(3-(4-(diethylphosphoryl)-2-fluoro-5-(methylamino)phenyl)-2-oxo-2,3-dihydro-1H-imidazol-1-yl)-2-(4-fluoro-3,5-dimethylphenyl)-4-methyl-4,5,6,7-tetrahydro-2H-pyrazolo[4,3-c]pyridine-5-carbonyl)-5-(tetrahydro-2H-pyran-4-yl)-1H-indol-1-yl)-2-methylcyclopropyl)-1,2,4-oxadiazol-5(4H)-one], for which the EC50 was below 0.1 nM under setting [1] and at most 0.1 nM under setting [2].

With `CNc1cc(-n2ccn(-c3c4c(nn3-c3cc(C)c(F)c(C)c3)CCN(C(=O)c3cc5cc(C6CCOCC6)ccc5n3[C@@]3(c5noc(=O)[nH]5)C[C@@H]3C)[C@H]4C)c2=O)ccc1P(C)(C)=O` [Compound 106a, 3-((1S,2S)-1-(2-((S)-3-(3-(4-(dimethylphosphoryl)-3-(methylamino)phenyl)-2-oxo-2,3-dihydro-1H-imidazol-1-yl)-2-(4-fluoro-3,5-dimethylphenyl)-4-methyl-4,5,6,7-tetrahydro-2H-pyrazolo[4,3-c]pyridine-5-carbonyl)-5-(tetrahydro-2H-pyran-4-yl)-1H-indol-1-yl)-2-methylcyclopropyl)-1,2,4-oxadiazol-5(4H)-one], the EC50 is below 0.1 nM under setting [1] and at most 0.1 nM under setting [2].

`CCP(=O)(CC)c1ccc(-n2ccn(-c3c4c(nn3-c3cc(C)c(F)c(C)c3)CCN(C(=O)c3cc5cc(C6CCOCC6)ccc5n3[C@@]3(c5noc(=O)[nH]5)C[C@@H]3C)[C@H]4C)c2=O)cc1OC` [Compound 118a, 3-((1S,2S)-1-(2-((S)-3-(3-(4-(diethylphosphoryl)-3-methoxyphenyl)-2-oxo-2,3-dihydro-1H-imidazol-1-yl)-2-(4-fluoro-3,5-dimethylphenyl)-4-methyl-4,5,6,7-tetrahydro-2H-pyrazolo[4,3-c]pyridine-5-carbonyl)-5-(tetrahydro-2H-pyran-4-yl)-1H-indol-1-yl)-2-methylcyclopropyl)-1,2,4-oxadiazol-5(4H)-one]: the EC50 under setting [1] was below 0.1 nM and the EC50 under setting [2] is at most 0.1 nM.

For `CCP(=O)(CC)c1ccc(-n2ccn(-c3c4c(nn3-c3cc(C)c(F)c(C)c3)CCN(C(=O)c3cc5cc(C6CCOCC6)ccc5n3[C@@]3(c5noc(=O)[nH]5)C[C@@H]3C)[C@H]4C)c2=O)cc1NC` [Compound 121a, 3-((1S,2S)-1-(2-((S)-3-(3-(4-(diethylphosphoryl)-3-(methylamino)phenyl)-2-oxo-2,3-dihydro-1H-imidazol-1-yl)-2-(4-fluoro-3,5-dimethylphenyl)-4-methyl-4,5,6,7-tetrahydro-2H-pyrazolo[4,3-c]pyridine-5-carbonyl)-5-(tetrahydro-2H-pyran-4-yl)-1H-indol-1-yl)-2-methylcyclopropyl)-1,2,4-oxadiazol-5(4H)-one], the EC50 was below 0.1 nM under setting [1] and at most 0.1 nM under setting [2].

With `CCP(=O)(CC)c1ccc(-n2ccn(-c3c4c(nn3-c3cc(C)c(F)c(C)c3)CCN(C(=O)c3cc5cc(C6CCOCC6)ccc5n3[C@@]3(c5noc(=O)[nH]5)C[C@@H]3C)[C@H]4C)c2=O)c(F)c1NC` [Compound 145a, 3-((1S,2S)-1-(2-((S)-3-(3-(4-(diethylphosphoryl)-2-fluoro-3-(methylamino)phenyl)-2-oxo-2,3-dihydro-1H-imidazol-1-yl)-2-(4-fluoro-3,5-dimethylphenyl)-4-methyl-4,5,6,7-tetrahydro-2H-pyrazolo[4,3-c]pyridine-5-carbonyl)-5-(tetrahydro-2H-pyran-4-yl)-1H-indol-1-yl)-2-methylcyclopropyl)-1,2,4-oxadiazol-5(4H)-one], the EC50 is below 0.1 nM under setting [1] and at most 0.1 nM under setting [2].

Regarding `Cc1cc(-n2nc3c(c2-n2ccn(-c4ccc(P5(=O)CCCC5)cc4)c2=O)[C@H](C)N(C(=O)c2cc4cc(C5CCOCC5)ccc4n2[C@@]2(c4noc(=O)[nH]4)C[C@@H]2C)CC3)cc(C)c1F` [Compound 127a, 3-((1S,2S)-1-(2-((S)-2-(4-fluoro-3,5-dimethylphenyl)-4-methyl-3-(3-(4-(1-oxidophospholan-1-yl)phenyl)-2-oxo-2,3-dihydro-1H-imidazol-1-yl)-4,5,6,7-tetrahydro-2H-pyrazolo[4,3-c]pyridine-5-carbonyl)-5-(tetrahydro-2H-pyran-4-yl)-1H-indol-1-yl)-2-methylcyclopropyl)-1,2,4-oxadiazol-5(4H)-one], the EC50 runs as follows: under setting [1], below 0.1 nM; under setting [2], at most 0.1 nM.

Turning to `CCNc1cc(-n2ccn(-c3c4c(nn3-c3cc(C)c(F)c(C)c3)CCN(C(=O)c3cc5cc(C6CCOCC6)ccc5n3[C@@]3(c5noc(=O)[nH]5)C[C@@H]3C)[C@H]4C)c2=O)ccc1P(=O)(CC)CC` [Compound 120a, 3-((1S,2S)-1-(2-((S)-3-(3-(4-(diethylphosphoryl)-3-(ethylamino)phenyl)-2-oxo-2,3-dihydro-1H-imidazol-1-yl)-2-(4-fluoro-3,5-dimethylphenyl)-4-methyl-4,5,6,7-tetrahydro-2H-pyrazolo[4,3-c]pyridine-5-carbonyl)-5-(tetrahydro-2H-pyran-4-yl)-1H-indol-1-yl)-2-methylcyclopropyl)-1,2,4-oxadiazol-5(4H)-one], the EC50 under setting [1] is below 0.1 nM and the EC50 under setting [2] was at most 0.1 nM.

With `Cc1cc(-n2nc3c(c2-n2ccn(-c4cc(P(C)(C)=O)c5[nH]cnc5c4)c2=O)[C@H](C)N(C(=O)c2cc4cc(C5CCOCC5)ccc4n2[C@@]2(c4noc(=O)[nH]4)C[C@@H]2C)CC3)cc(C)c1F` [Compound 110a, 3-((1S,2S)-1-(2-((S)-3-(3-(7-(dimethylphosphoryl)-1H-benzo[d]imidazol-5-yl)-2-oxo-2,3-dihydro-1H-imidazol-1-yl)-2-(4-fluoro-3,5-dimethylphenyl)-4-methyl-4,5,6,7-tetrahydro-2H-pyrazolo[4,3-c]pyridine-5-carbonyl)-5-(tetrahydro-2H-pyran-4-yl)-1H-indol-1-yl)-2-methylcyclopropyl)-1,2,4-oxadiazol-5(4H)-one], the EC50 runs as follows: under setting [1], 0.5 to 5 nM; under setting [2], 0.1 to 1 nM.

Take `Cc1cc(-n2nc3c(c2-n2ccn(-c4ccc(P(=O)(C(C)C)C(C)C)cc4)c2=O)[C@H](C)N(C(=O)c2cc4cc(C5CCOCC5)ccc4n2[C@@]2(c4noc(=O)[nH]4)C[C@@H]2C)CC3)cc(C)c1F` [Compound 128a, 3-((1S,2S)-1-(2-((S)-3-(3-(4-(diisopropylphosphoryl)phenyl)-2-oxo-2,3-dihydro-1H-imidazol-1-yl)-2-(4-fluoro-3,5-dimethylphenyl)-4-methyl-4,5,6,7-tetrahydro-2H-pyrazolo[4,3-c]pyridine-5-carbonyl)-5-(tetrahydro-2H-pyran-4-yl)-1H-indol-1-yl)-2-methylcyclopropyl)-1,2,4-oxadiazol-5(4H)-one]: the EC50 under setting [1] is below 0.1 nM and the EC50 under setting [2] was at most 0.1 nM.

Turning to `CCP(=O)(CC)c1ccc(-n2ccn(-c3c4c(nn3-c3cc(C)c(F)c(C)c3)CCN(C(=O)c3cc5cc(N6CCOC(C)(C)C6)ccc5n3[C@@]3(c5noc(=O)[nH]5)C[C@@H]3C)[C@H]4C)c2=O)cc1NC` [Compound 150a, 3-((1S,2S)-1-(2-((S)-3-(3-(4-(diethylphosphoryl)-3-(methylamino)phenyl)-2-oxo-2,3-dihydro-1H-imidazol-1-yl)-2-(4-fluoro-3,5-dimethylphenyl)-4-methyl-4,5,6,7-tetrahydro-2H-pyrazolo[4,3-c]pyridine-5-carbonyl)-5-(2,2-dimethylmorpholino)-1H-indol-1-yl)-2-methylcyclopropyl)-1,2,4-oxadiazol-5(4H)-one], the EC50 is, setting by setting: under setting [1], 0.1 to 0.2 nM; under setting [2], 0.1 to 1 nM.

With `CCP(=O)(CC)c1ccc(-n2ccn(-c3c4c(nn3-c3cc(C)c(F)c(C)c3)CCN(C(=O)c3cc5cc(C6CCOCC6)ccc5n3[C@@]3(c5noc(=O)[nH]5)C[C@@H]3C)[C@H]4C)c2=O)cc1` [Compound 129a, 3-((1S,2S)-1-(2-((S)-3-(3-(4-(diethylphosphoryl)phenyl)-2-oxo-2,3-dihydro-1H-imidazol-1-yl)-2-(4-fluoro-3,5-dimethylphenyl)-4-methyl-4,5,6,7-tetrahydro-2H-pyrazolo[4,3-c]pyridine-5-carbonyl)-5-(tetrahydro-2H-pyran-4-yl)-1H-indol-1-yl)-2-methylcyclopropyl)-1,2,4-oxadiazol-5(4H)-one], the EC50 is, setting by setting: under setting [1], below 0.1 nM; under setting [2], at most 0.1 nM.
